Experimental data taken from article PMC7979765, “trans-Translation inhibitors bind to a novel site on the ribosome and clear Neisseria gonorrhoeae in vivo” (Nature Communications, 2021).
In brackets after ≈: the same amount, converted by molar mass. Several values for one entry are separate records, joined by “and”; a condition that tells them apart may be missing. Equal entries are not always repeated. Where two headings read alike, the source gives them in different places.

Legend:
[1] = Serum protein binding, murine; assay type: in vitro ADME, mouse; conditions: mouse, serum, Reported value; Eurofins; read-out: Serum binding (% bound) Murine (converted)
Method: Serum protein binding was determined using an equilibrium dialysis method as described. The amount of compound in each chamber (buffer and serum) was measured using methods for reverse-phase liquid chromatography/mass spectroscopy methods that were customized for each compound.

[2] = system: Staphylococcus aureus; test: MIC, microbroth dilution; assay type: cell-based
[3] = Aqueous solubility (nephelometric); assay type: physicochemical; conditions: aqueous solution (buffer not named); single replicates
[4] = system: Klebsiella pneumoniae; test: MIC, microbroth dilution; assay type: cell-based
[5] = system: Pseudomonas aeruginosa; test: MIC, microbroth dilution; assay type: cell-based
[6] = system: HeLa cells; test: Mammalian cell cytotoxicity (CC50); assay type: cell-based, human; conditions: for NORMALIZED DATA (Fraction DMSO Control) / […] (Fraction DMSO Control): HeLa, per replicate
Method: (§1) The half maximal cytotoxic concentration (CC50) of each compound against HeLa cells (ATCC CCL-2) was measured as previously described. […] The mean values for each biological replicate were averaged, and the CC50 was determined using a 4-parameter nonlinear curve fitting algorithm (GraphPad Prism). The average of the CC50s from two biological replicates was calculated and reported.

[7] = Mammalian cell cytotoxicity (CC50); assay type: cell-based, human; conditions: human, HeLa cells (ATCC CCL-2)
Method: as §1

[8] = HeLa cytotoxicity, value per replicate

Q: With `O=C(Nc1nnc(-c2ccc(F)cc2)o1)N1CCc2ccccc2C1` [MBX-4132] as the compound, how does the fraction unbound [1] read?
A: 0.02

Q: And the MIC ([2]; Staphylococcus aureus ATCC 25923, replicates)?
A: 8.46 µg/mL (≈ 25 µM)

Q: What about the MIC ([2]; Staphylococcus aureus ATCC 35556, replicates) of the same compound?
A: 4.23 µg/mL (≈ 12.5 µM)

Q: What about the MIC ([2]; Staphylococcus aureus BAA-1717, replicates) of the same compound?
A: 1 µg/mL (≈ 2.96 µM)

Q: And the MIC ([2]; Staphylococcus aureus MRSA-1094, replicates)?
A: 2.11 µg/mL and 4.23 µg/mL

Q: What about the MIC ([2]; Staphylococcus aureus MRSA-1234547263, replicates) of the same compound?
A: 2.11 µg/mL and 4.23 µg/mL

Q: And the MIC ([2]; Staphylococcus aureus MSSA, replicates)?
A: 2.11 µg/mL and 4.23 µg/mL

Q: And the MIC ([2]; Staphylococcus aureus N315, NRS-70, replicates)?
A: 8.46 µg/mL (≈ 25 µM)

Q: And the MIC ([2]; Staphylococcus aureus NRS-77, replicates)?
A: 2.11 µg/mL and 4.23 µg/mL

Q: And the MIC ([2]; Staphylococcus aureus THC1516, replicates)?
A: 0.5 µg/ml (3×) and 1 µg/ml (2×)

Q: And the MIC ([2]; Staphylococcus aureus, ATCC25923, Staphylococcus aureus ATCC 25923, replicates, read-out: MIC)?
A: 4.23 µg/mL (≈ 12.5 µM)

Q: What about the MIC ([2]; Staphylococcus aureus, ATCC25923, strain ATCC 25923, read-out: MIC) of the same compound?
A: 6.3 µg/mL (≈ 18.6 µM)

Q: And the MIC ([2]; Staphylococcus aureus, ATCC35556, Staphylococcus aureus ATCC 35556, replicates, read-out: MIC)?
A: 4.23 µg/mL (≈ 12.5 µM)

Q: And the MIC ([2]; Staphylococcus aureus, ATCC35556, strain ATCC 35556, read-out: MIC)?
A: 4.2 µg/mL (≈ 12.4 µM)

Q: And the MIC ([2]; Staphylococcus aureus, BAA1717, Staphylococcus aureus BAA-1717, replicates, read-out: MIC)?
A: 1 µg/mL (≈ 2.96 µM)

Q: What about the MIC ([2]; Staphylococcus aureus, BAA-1717 / MRSA, strain BAA-1717, MRSA, read-out: MIC) of the same compound?
A: 1 µg/mL (≈ 2.96 µM)

Q: What about the MIC ([2]; Staphylococcus aureus, MRSA / NRS 70, strain N315, NRS-70, MRSA, read-out: MIC) of the same compound?
A: 6.3 µg/mL (≈ 18.6 µM)

Q: And the MIC ([2]; Staphylococcus aureus, MRSA, strain MRSA-1094, MRSA, read-out: MIC)?
A: 3.2 µg/mL (≈ 9.46 µM)

Q: And the MIC ([2]; Staphylococcus aureus, MRSA, strain MRSA-1234547263, MRSA, read-out: MIC)?
A: 3.2 µg/mL (≈ 9.46 µM)

Q: And the MIC ([2]; Staphylococcus aureus, MRSA, strain THC1516, MRSA, read-out: MIC)?
A: 1 µg/mL (≈ 2.96 µM)

Q: What about the MIC ([2]; Staphylococcus aureus, MSSA, strain MSSA, read-out: MIC) of the same compound?
A: 3.2 µg/mL (≈ 9.46 µM)

Q: And the MIC ([2]; Staphylococcus aureus, NRS70, Staphylococcus aureus N315, NRS-70, replicates, read-out: MIC)?
A: 4.23 µg/mL (≈ 12.5 µM)

Q: What about the MIC ([2]; Staphylococcus aureus, NRS77, strain NRS-77, read-out: MIC) of the same compound?
A: 3.2 µg/mL (≈ 9.46 µM)

Q: And the MIC ([2]; Staphylococcus aureus, Staphylococcus aureus THC1516, replicates, read-out: MIC)?
A: 0.5 µg/mL (≈ 1.48 µM)

Q: What about the Solubility [3] of the same compound?
A: 100 µM (≈ 33.8 µg/mL)

Q: What about the MIC ([4]; Klebsiella pneumoniae ATCC 13883, replicates) of the same compound?
A: ≥34 µg/mL

Q: And the MIC ([4]; Klebsiella pneumoniae, ATCC13883, strain ATCC 13883, read-out: MIC)?
A: ≥ 34 µg/mL

Q: And the MIC ([5]; Pseudomonas aeruginosa ATCC 27853, replicates)?
A: ≥34 µg/mL

Q: What about the MIC ([5]; Pseudomonas aeruginosa, ATCC27853, Pseudomonas aeruginosa ATCC 27853, replicates, read-out: MIC) of the same compound?
A: ≥ 34 µg/mL

Q: And the MIC ([5]; Pseudomonas aeruginosa, ATCC27853, strain ATCC 27853, read-out: MIC)?
A: ≥ 34 µg/mL

Q: What about the CC50 [6, 8] of the same compound?
A: 40.1 µM and 36.3 µM and 20.1 µM and 22.1 µM and 22.6 µM

Q: What about the “NORMALIZED DATA (Fraction DMSO Control)” value ([6]; [CMPD] 0.78125 µM) of the same compound?
A: 0.9968 Fraction DMSO Control and 1.046 Fraction DMSO Control and 1.033 Fraction DMSO Control and 0.9287 Fraction DMSO Control and 0.9308 Fraction DMSO Control and 0.9008 Fraction DMSO Control

Q: And the “NORMALIZED DATA (Fraction DMSO Control)” value ([6]; [CMPD] 1.5625 µM)?
A: 0.97 Fraction DMSO Control and 0.9994 Fraction DMSO Control and 0.9978 Fraction DMSO Control and 0.9354 Fraction DMSO Control and 0.9201 Fraction DMSO Control and 0.9227 Fraction DMSO Control

Q: What about the “NORMALIZED DATA (Fraction DMSO Control)” value ([6]; [CMPD] 3.125 µM) of the same compound?
A: 0.9272 Fraction DMSO Control and 0.9885 Fraction DMSO Control and 0.9744 Fraction DMSO Control and 0.9295 Fraction DMSO Control and 0.9174 Fraction DMSO Control and 0.8829 Fraction DMSO Control

Q: What about the “NORMALIZED DATA (Fraction DMSO Control)” value ([6]; [CMPD] 6.25 µM) of the same compound?
A: 0.9057 Fraction DMSO Control and 0.9944 Fraction DMSO Control and 0.9769 Fraction DMSO Control and 0.8719 Fraction DMSO Control and 0.9166 Fraction DMSO Control and 0.9146 Fraction DMSO Control

Q: What about the “NORMALIZED DATA (Fraction DMSO Control)” value ([6]; [CMPD] 12.5 µM) of the same compound?
A: 0.7347 Fraction DMSO Control and 0.9472 Fraction DMSO Control and 1.04 Fraction DMSO Control and 0.6999 Fraction DMSO Control and 0.7003 Fraction DMSO Control and 0.7354 Fraction DMSO Control

Q: And the “NORMALIZED DATA (Fraction DMSO Control)” value ([6]; [CMPD] 25 µM)?
A: 0.4205 Fraction DMSO Control and 0.7028 Fraction DMSO Control and 0.4452 Fraction DMSO Control and 0.4899 Fraction DMSO Control and 0.486 Fraction DMSO Control

Q: And the “[…] (Fraction DMSO Control)” value ([6]; [CMPD] 25 µM)?
A: 0.7319 Fraction DMSO Control

Q: And the “NORMALIZED DATA (Fraction DMSO Control)” value ([6]; [CMPD] 50 µM)?
A: 0.4043 Fraction DMSO Control and 0.3802 Fraction DMSO Control and 0.2112 Fraction DMSO Control and 0.1979 Fraction DMSO Control

Q: And the “[…] (Fraction DMSO Control)” value ([6]; [CMPD] 50 µM)?
A: 0.2642 Fraction DMSO Control and 0.1957 Fraction DMSO Control

Q: What about the “NORMALIZED DATA (Fraction DMSO Control)” value ([6]; [CMPD] 100 µM) of the same compound?
A: 0.2429 Fraction DMSO Control and 0.2248 Fraction DMSO Control and 0.2297 Fraction DMSO Control

Q: What about the “[…] (Fraction DMSO Control)” value ([6]; [CMPD] 100 µM) of the same compound?
A: 0.1038 Fraction DMSO Control and 0.3131 Fraction DMSO Control and 0.2661 Fraction DMSO Control

Q: What about the CC50 [7, 8] of the same compound?
A: 22.2 µM

Q: And the CC50 ([7]; half-maximal cytotoxic concentration against HeLa cells)?
A: 45 µM
